Assay results reported in patent US5354778A, “Antitumor compositions and methods of treatment” (priority 1993, dated 1994).
In brackets after ≈: the same amount, converted by molar mass.

How the values were obtained:
[1] = test system: 6C3HED lymphosarcoma; test: in vivo activity against 6C3HED lymphosarcoma (Gardner lymphosarcoma, GLS) transplanted in C3H mice, oral; details: for Toxic/Total (number of mice which died during test period/total number of mice in test group): 6C3HED tumor-bearing C3H mice; for inhibition in vivo at 150 mg/kg / inhibition in vivo at 300 mg/kg: Mus musculus, 6C3HED, po, 192 h, read-out: % Tumor Inhibition; for % Tumor Inhibition: 6C3HED tumor, C3H mice
Method: The compounds were tested in C3H mice bearing a 6C3HED lymphosarcoma, also known as the Gardner lymphosarcoma (GLS). The 6C3HED lymphosarcoma was obtained from the Division of Cancer Treatment, National Cancer Institute, Tumor Bank, maintained at E. G. and G. Mason Research (Worcester, Mass.). First passage tumor was stored in liquid nitrogen using standard techniques. The transplanted tumor was reestablished from the Tumor Bank every six months or as needed. The tumor was maintained by serial passage twice weekly in C3H mice.
In the procedure the tumor was removed from passage animals and minced into 1- to 3-mm square fragments using sterile techniques. Tumor pieces were checked for sterility using both Antibiotic Medium 1 and Brain Heart Infusion (Difco, Detroit, Mich.). Recipient mice were shaved and tumor pieces were implanted subcutaneously in the auxiliary region by trocar. Drug therapy on the appropriate schedule was initiated on the day after tumor implant. The compound being tested was mixed with 2.5 weight % of a polyoxyethylated oil known as "Emulphor EL-620" surfactant from GAF Chemicals Corporation (1:40 dilution of Empulphor in saline). All animals were weighed at the beginning and end of administration of the subject compounds. Food and water were provided ad libitum. The drug was administered orally in 0.5 ml of 2.5% Emulphor. Unless otherwise indicated, the compound was administered once per day for eight days. The tumor was measured the day after treatment ended with two dimensional measurements (width and length) of the tumor taken using Vernier calipers. Tumor weights were calculated from these measurements using the following formula:
(tumor weight in mg)=(width in mm)^2 ×(length in mm)/2
At least one control group of an equal number of mice was treated with the same volume of 2.5% Emulphor only. The percent inhibition was calculated by subtracting the ratio of the mean tumor size of the test group relative to the control group from 1 and multiplying the result by 100.
The results of administering some of the present compounds orally (unless otherwise indicated) to mice bearing a 6C3HED tumor are provided in the Table. In the Table, column 1 gives the example number corresponding to the preparation of the particular compound, column 2 provides the dose level, column 3 lists the percent inhibition of tumor growth, and column 4 gives the number of mice which died relative to the total number of animals in the group.

[2] = test system: CCRF-CEM cells; test: in vitro cytotoxicity against CCRF-CEM cells (50% inhibition of growth); format: cell-based, human; details: 72 h incubation; for IC50: Homo sapiens, CCRF-CEM
Method: The in vitro CCRF-CEM data reported in column 5 of the Table was obtained using CCRF-CEM cells, a human leukemia cell line, (Foley et al., Cancer, 1965, 18, 522) were grown as previously described (Grindey, et al., J. Mol. Pharmacol., 1979, 16, 601) both references incorporated herein by reference. Dose-response curves were generated for various compounds to determine the concentration required for 50% inhibition of growth (IC50). Cluster plates were prepared in duplicate with the compound at various concentrations. Test compounds were dissolved initially in DMSO at a concentration of 4 mg/mL and further diluted with solvent to the desired concentration. Cells in Roswell Park Memorial Institute 1640 media supplemented with 10% dialyzed fetal bovine serum, and 25 mM HEPES buffer were added to the well an a final concentration of 4.8×10^4 cells/well in a total volume of 2.0 mL. After 72 h of incubation (95% air, 5% CO2), cell numbers were determined on a ZBI Coulter counter. Cell number for indicated controls at the end of incubation was usually (4-6)×10^5 cells/well.

[3] = 150 mg/kg orally daily for eight days
[4] = 300 mg/kg orally daily for eight days

Structure (SMILES)	Toxic/Total (number of mice which died during test period/total number of mice in test group) [1, 3]	Toxic/Total (number of mice which died during test period/total number of mice in test group) [1, 4]	inhibition in vivo at 150 mg/kg [1] [%]	inhibition in vivo at 300 mg/kg [1] [%]	IC50 [2] [µg/mL]	% Tumor Inhibition [1, 3] [%]	% Tumor Inhibition [1, 4]	in vitro (CCRF-CEM) IC50 [2] [µg/mL]
Cc1cc(S(=O)(=O)NC(=O)Nc2ccc(Cl)c(Cl)c2)cc(C)c1C [Example 4, N-[[(3,4-Dichlorophenyl)amino]carbonyl]-3,4,5-trimethylbenzenesulfonamide]	0/10	1/10	38	74	13.5 (≈ 34.9 µM)			
CNc1c(Br)cc(S(=O)(=O)NC(=O)Nc2ccc(Cl)cc2)cc1Br [Example 18, N-[[(4-Chlorophenyl)amino]carbonyl]-3,5-dibromo-4-(N-methylamino)benzenesulfonamide]	1/10	0/10	26	47	19.3 (≈ 38.8 µM)			
COc1cc(S(=O)(=O)NC(=O)Nc2ccc(Cl)cc2)cc(OC)c1OC [Example 16, N-[[(4-Chlorophenyl)amino]carbonyl]-3,4,5-trimethoxylbenzenesulfonamide]	0/10	0/10	6	35	> 20			
Cc1cc(S(=O)(=O)NC(=O)Nc2ccc(Cl)cc2)cc(C)c1C [Example 1, N-[[(4-Chlorophenyl)amino]carbonyl]-3,4,5-trimethylbenzene sulfonamide]	0/10	0/10	99	100	14.8 (≈ 41.9 µM)			
O=C(Nc1ccc(Cl)cc1)NS(=O)(=O)c1cc(Cl)c(Cl)c(Cl)c1 [Example 6, N-[[(4-Chlorophenyl)amino]carbonyl]-3,4,5-trichlorobenzene sulfonamide]	0/10	3/10	99	99	> 20			
Nc1c(Cl)cc(S(=O)(=O)NC(=O)Nc2ccc(Cl)cc2)cc1Cl [Example 7, N,[[(4-Chlorophenyl)amino]carbonyl]-4-amino-3,5-dichlorobenzenesulfonamide]	0/10	10/10				95	Toxic	> 20
Cc1cc(S(=O)(=O)NC(=O)Nc2ccc(Cl)cc2)cc(C)c1Cl [Example 12, N-[[(4-Chlorophenyl)amino]carbonyl]-4-chloro-3,5-dimethylbenzenesulfonamide]	0/10	1/10	44	84	15 (≈ 40.2 µM)			
Cc1cc(S(=O)(=O)NC(=O)Nc2ccc(C(F)(F)F)cc2)cc(C)c1C [Example 3, N-[[(4 -Trifluoromethylphenyl)amino]carbonyl]-3,4,5-trimethylbenzenesulfonamide]	0/10	4/10	100	100	> 20			
CN(C)c1c(Cl)cc(S(=O)(=O)NC(=O)Nc2ccc(Cl)cc2)cc1Cl [Example 14, N-[[(4-Chlorophenyl)amino]carbonyl]-4-(N,N,dimethylamino)-3,5-dichlorobenzene-sulfonamide]	1/10	0/10	50	93	17 (≈ 40.2 µM)			
Cc1cc(S(=O)(=O)NC(=O)Nc2ccc(Br)cc2)cc(C)c1C [Example 2, N-[[(4-Bromomhenyl)amino]carbonyl]-3,4,5-trimethylbenzenesulfonamide]	1/10	8/10	99	99	> 20			
COc1c(C)cc(S(=O)(=O)NC(=O)Nc2ccc(Cl)cc2)cc1C [Example 15, N-[[(4-Chlorophenyl)amino]carbonyl]-3,5-dimethyl-4-methoxybenzesulfonamide]	1/10	0/10	55	87	16.5 (≈ 44.7 µM)			
